Reference: patent publication US10202408B2, “Prodrugs and methods of use thereof” (Health Innovation Ventures B.V., priority 2012, dated 2019)
Entries after “also recorded” stand apart in the source; their conditions may differ.

Experiments:
[1] = system: HCT116 cells engineered to over-express E coli NfsA; assay: Low cell density IC50 (SRB) assay, HCT116 wild type versus E coli NfsA over-expressing cells; assay type: cell-based, human
Description: (§1) Compounds were subjected to testing, including low-cell density cytotoxicity assay. Cells (500 cells/well) were seeded in 96-well plates and exposed to prodrug for 4 h, washed, then left to grow for a further 5 days. The SRB assay was employed to determine IC50 values (concentration of prodrug required to inhibit proliferation by 50%). Parental HCT116 cells (HCT116 is a cell line derived from human colon cancer) and cells expressing the example nitroreductase gene nfsA from Escherichia coli were evaluated head-to-head. Parental H1299 cells (H1299 is a cell line derived from lung cancer) and cells expressing the example nitroreductase gene nfsA from Escherichia coli were evaluated head-to-head. Parental HCT116 cells and cells expressing human AKR1C3 were evaluated head-to-head. Parental H1299 cells and cells expressing human AKR1C3 were evaluated head-to-head. In a variation of these assays test compounds were assessed for their ability to give hypoxia-selective cell killing. Here wild type HCT116, H460 (H460 is a cell line derived from lung cancer), H1299 and SiHa cells (SiHa is a cell line derived from cervical cancer) were used in addition to HCT116 cells engineered to over express cytochrome P450 reductase (HCT116 POR), a human one-electron nitroreductase. Low-cell density cytotoxicity assays were performed as above under oxic conditions and compared to experiments where cells were shown 4 h of anoxia during the prodrug exposure period, before being washed free of prodrug and then left to grow for a further 5 days under oxic conditions, as above.

[2] = system: H1299 cells engineered to over-express E coli NfsA; assay: Low cell density IC50 (SRB) assay, H1299 wild type versus E coli NfsA over-expressing cells; assay type: cell-based, human
Description: as §1

[3] = system: HCT116 MCLs over-expressing AKR1C3; assay: Multicellular layer (MCL) clonogenic assay, HCT116 wild type versus AKR1C3 over-expressing MCLs; assay type: cell-based, human
Description: (§2) In parallel, a three dimensional high-cell density multi-cellular layer (MCL) clonogenic assay was performed. 1×10^6 cells of either 100% HCT-116^WT or containing 97% WT with a minor 3% HCT-116^NTR cell population were seeded into a collagen-coated Teflon microporous membrane and left to grow for 3 days. MCLs were then exposed to prodrug for 5 h. After treatment, MCLs were enzyme dissociated, diluted in fresh medium and plated to determine clonogenic survival. To discriminate clonogenic activator (NTR+) from target (NTR−) colonies, cells were plated in non-selective medium (total cells) and medium containing 1 μM puromycin (activator cells). Colonies were grown for 10 days before staining. Colonies containing >50 cells were counted. A variation of this assay was also used to assess for evidence of AKR1C3-dependent cytotoxicity. Here either 100% HCT-116W^T or 100% HCT-116^AKR1C3 cells were seeded to provide MCLs that were then exposed to prodrug.

[4] = system: HCT116 cells engineered to over-express human aldo-ketoreductase 1C3 (AKR1C3); assay: Low cell density IC50 (SRB) assay, HCT116 wild type versus AKR1C3 over-expressing cells; assay type: cell-based; conditions: 4 h exposure
Description: as §1

[5] = system: 15% E coli NfsA-expressing H1299 xenografts; assay: Tumour growth delay, 15% E coli NfsA-expressing H1299 xenografts; assay type: in vivo, NIH-III mice
Description: Animals weighed 18-25 g at the time of tumour inoculation. Tumours were grown subcutaneously on the right flank of mice by inoculating cells grown in tissue culture (1×10^7 cells in 100 uL serum free α-MEM). Tumour sizes were monitored three times weekly using electronic callipers and treatments were initiated once tumour diameter reached ≥7 mm.
Tumour bearing mice were randomised into the appropriate treatment groups and tumour size and body weight recorded. Test compounds were formulated on the day of the experiment and kept in foil-wrapped tubes out of direct fluorescent light. If recruitment of animals occurred over multiple days, the drug stocks were aliquoted into tubes and frozen once at […] until required. Mice were treated with a single (or BID) dose of prodrug by intraperitoneal injection and thereafter tumour size and body weight was monitored every second day. Tumour volume was calculated as π (l×w×w)/6, where l is the major axis and w is the perpendicular minor axis. Animals were culled when they had reached the appropriate survival endpoint or when body weight loss exceeded 20% of the pre-treatment value.

[6] = system: wild type SiHa tumour xenografts; assay: Excision assay with and without radiation, wild type SiHa tumour xenografts; assay type: in vivo, NIH-III nude mice
Description: Tumours were grown subcutaneously in the flank of NIH-III mice by inoculating cells grown in tissue culture. Tumours were monitored using electronic calipers. When tumours reached treatment size, mice were randomized to treatment groups (five to seven per group). Compounds were given as single (or BID) intraperitoneal doses alone or 5 min after whole body irradiation (^60Co source). Eighteen hours after treatment, tumours were excised, weighed, minced, dissociated enzymatically, and plated to determine clonogenicity. Clonogens/gram of tissue were calculated relative to controls and effects of treatment were tested for significance (ANOVA with Dunnett's).

[7] = system: H1299 cells engineered to over-express human aldo-ketoreductase 1C3 (AKR1C3); assay: Low cell density IC50 (SRB) assay, H1299 wild type versus AKR1C3 over-expressing cells; assay type: cell-based; conditions: 4 h exposure
Description: as §1

[8] = system: HCT116 MCLs with 3% E coli NfsA-expressing cells; assay: MCL clonogenic bystander assay, HCT116 MCLs seeded with 3% E coli NfsA-expressing cells; assay type: cell-based, human; conditions: 97% wild type HCT116, 3% E coli NfsA-expressing cells
Description: as §2

[9] = system: bacterial nitroreductases from the NfsA and NfsB families; assay: GFP SOS assay with nitroreductase over-expression library; assay type: cell-based, E. coli strain SOS-R4; conditions: 55 candidate nitroreductase library, 6 h challenge
From the text: The method employed the over-expression of a candidate nitroreductase gene from plasmid pUCX in an SOS reporter strain, as first described in Prosser et al., 2010, Biochem Pharmacol 79, 678-687. In order to enhance the sensitivity of the SOS reporter system, an sfiA::GFP reporter construct was integrated into a CDF-based plasmid (which contains a compatible origin of replication with pUCX) to give the pANODuet reporter plasmid for GFP screening. In addition, nfsA, nfsB, azoR, and nemA genes were deleted to minimise background metabolism, and the tolC gene deleted to minimise efflux of test compounds; this strain was designated SOS-R3. Further improvements were obtained by deleting the mdaB, ycaK, and yieF genes to minimise background metabolism, and by introducing transcriptional terminators to the pANODUET reporter plasmid. This final reporter strain was designated SOS-R4.
Stored glycerols of the 55-membered nitroreductase library in SOS-R4 were thawed and used to inoculate overnight cultures (Lysogeny Broth (LB) amended with 100 μg ml^−1 Ampicillin, 50 μg ml^−1 Spectinomycin, 0.4% glucose) that were incubated at 30° C., 200 rpm for 16 h. The next morning the GFP-SOS assay was commenced by inoculation of 195 μl fresh assay media (LB+100 μg ml^−1 Ampicillin, 50 μg ml^−1 Spectinomycin, 0.2% glucose, 50 μM IPTG) with 15 μl of overnight culture in individual wells of a 96-well plate. Plates were incubated at 30° C., 200 rpm for 2.5 h (pre-challenge period), following which cultures were diluted 1:2 by splitting 50:50 into fresh assay media (+DMSO to 0.5% final concentration) and fresh challenge media (assay media+drug to desired concentration, DMSO to 0.5% final concentration) to final volumes of 80 μl apiece in duplicate on a 384-well plate. Plates were incubated at 30° C., 200 rpm for 6 h (challenge period). GFP expression was determined at excitation 488 nm/emission 509 nm. Turbidity was determined by OD600 and fluorescence data from any replicates not found to be within 15% of the median culture turbidity were discarded.

[10] = system: bacterial nitroreductases from the NfsA and NfsB families; assay: as above; assay type: cell-based, E. coli strain SOS-R4; conditions: single and poly mutated variants of NfsA_Ec, single-mutated variant of NfsA_Bs

Row | SMILES | E coli NfsA-mediated cytotoxicity (IC50 wild type versus NfsA) [1] | E coli NfsA-mediated cytotoxicity (IC50 wild type versus NfsA) [2] | AKR1C3-dependent clonogenic cell kill in MCLs [3] | AKR1C3-mediated cytotoxicity (IC50 wild type versus AKR1C3) [4] | bystander cell killing in MCLs [8] | metabolism by bacterial nitroreductases (SOS response) [9] | activity with mutated nitroreductase variants [10] | other results
1 | CS(=O)(=O)OCCN(CCBr)c1c(C(=O)NCCO)cc([N+](=O)[O-])cc1[N+](=O)[O-] [PR-104A, 2-((2-bromoethyl)(2-((2-hydroxyethyl)carbamoyl)-4,6-dinitrophenyl)amino)ethyl methanesulfonate, reference compound] | produce E coli NfsA-mediated cytotoxicity | produce E coli NfsA-mediated cytotoxicity |  |  |  |  |  | 
2 | CCN(CCO)C(=O)c1cc([N+](=O)[O-])cc([N+](=O)[O-])c1N(CCBr)CCBr [compound 7, reference compound] |  |  | capable of producing AKR1C3-dependent cell ablation |  |  |  |  | 
3 | CC(C)N(CCO)C(=O)c1cc([N+](=O)[O-])cc([N+](=O)[O-])c1N(CCBr)CCBr [compound 8, reference compound] |  |  |  | appear negative for AKR1C3 dependent cell sensitivity |  |  |  | 
4 | CCCN(CCO)C(=O)c1cc([N+](=O)[O-])cc([N+](=O)[O-])c1N(CCBr)CCBr [compound 9, reference compound] |  |  | capable of producing AKR1C3-dependent cell ablation | appears to be AKR1C3-negative; also recorded: appear negative for AKR1C3 dependent cell sensitivity |  |  |  | 
5 | CCS(=O)(=O)c1cc([N+](=O)[O-])c(C(=O)N(C)CCOP(=O)(O)O)cc1N(CCBr)CCBr [compound 11, 2-(5-(bis(2-bromoethyl)amino)-4-(ethylsulfonyl)-N-methyl-2-nitrobenzamido)ethyl dihydrogen phosphate] |  |  |  |  |  |  |  | tumour growth delay ([5]; mixed HCT116 and H1299 xenografts, 15% E coli NfsA cells, single (or BID) intraperitoneal dose): profound tumour growth delay; E coli NfsA mediated anti-tumour efficacy (mean tumour volume) ([5]; single dose, 10, 22, 60 and 11 at 750, 422, 1330 and 1330 umol/kg): display significant E coli NfsA mediated anti-tumour efficacy; cell killing in combination with radiation versus radiation alone ([6]; HCT116 POR and wild type SiHa xenografts, 10 or 15Gy, single (or BID) intraperitoneal dose): increased cell killing above what could be achieved with radiation alone; hypoxic cell kill in vivo (log cell kill) ([6]; with or without 10Gy radiation, 22 at 422, 300 and 11 at 1330, 23 at 1000 umol/kg): significant hypoxic cell kill in vivo
6 | CC(C)N1CCN(C(=O)c2cc(N(CCBr)CCBr)c(S(C)(=O)=O)cc2[N+](=O)[O-])CC1 [compound 24, (5-(bis(2-bromoethyl)amino)-4-(methylsulfonyl)-2-nitrophenyl)(4-isopropylpiperazin-1-yl)methanone] | produce E coli NfsA-mediated cytotoxicity | produce E coli NfsA-mediated cytotoxicity | do not cause AKR1C3-dependant cytotoxicity | less susceptible to AKR1C3-mediated cytotoxicity than PR-104A | display evidence of metabolism by the 3% E coli NfsA-expressing cells with bystander cell killing of the 97% non-expressing neighbour cells | substrates for multiple wild type and mutant bacterial nitroreductases from the NfsA and NfsB families | demonstrated | AKR1C3-mediated cytotoxicity (IC50 wild type versus AKR1C3) [7]: less susceptible to AKR1C3-mediated cytotoxicity than PR-104A
7 | CCS(=O)(=O)c1cc([N+](=O)[O-])c(C(=O)N2CCN(C)CC2)cc1N(CCBr)CCBr [compound 25, (5-(bis(2-bromoethyl)amino)-4-(ethylsulfonyl)-2-nitrophenyl)(4-methylpiperazin-1-yl)methanone] | produce E coli NfsA-mediated cytotoxicity | produce E coli NfsA-mediated cytotoxicity | do not cause AKR1C3-dependant cytotoxicity | less susceptible to AKR1C3-mediated cytotoxicity than PR-104A | display evidence of metabolism by the 3% E coli NfsA-expressing cells with bystander cell killing of the 97% non-expressing neighbour cells | substrates for multiple wild type and mutant bacterial nitroreductases from the NfsA and NfsB families | demonstrated | AKR1C3-mediated cytotoxicity (IC50 wild type versus AKR1C3) [7]: less susceptible to AKR1C3-mediated cytotoxicity than PR-104A
8 | CS(=O)(=O)OCCN(CCBr)c1ccc([N+](=O)[O-])cc1C(=O)NCCO [compound 64, 2-((2-bromoethyl)(2-((2-hydroxyethyl)carbamoyl)-4-nitrophenyl)amino)ethyl methanesulfonate] | produce E coli NfsA-mediated cytotoxicity | produce E coli NfsA-mediated cytotoxicity | do not cause AKR1C3-dependant cytotoxicity | less susceptible to AKR1C3-mediated cytotoxicity than PR-104A | display evidence of metabolism by the 3% E coli NfsA-expressing cells with bystander cell killing of the 97% non-expressing neighbour cells | substrates for multiple wild type and mutant bacterial nitroreductases from the NfsA and NfsB families | demonstrated | 
